The text below walks through data of patent publication US8354447B2, “mGLU receptors antagonists for treating disorders associated with mGLU receptors including addiction and depression” (The Scripps Research Institute, priority 2002, dated 2013).

The conditions of series [1]: 9 mg/kg/day nicotine salt (3.16 mg/kg, free base) by osmotic mini-pump; cited from earlier work.
For a further series, the system named is Wistar rats. Briefly: Cocaine, nicotine and food responding under a progressive ratio schedule. It is filed as in vivo, rat. From the text: Under a fixed ratio schedule of reinforcement, as described above, an animal responds a ‘fixed’ number of times on an active lever to obtain a drug infusion. Fixed ratio (FR) schedules of reinforcement provide important information on whether a drug is reinforcing. […] By determining how hard an animal is willing to work for a drug, while limiting total intake, the PR schedule allows better separation of motivation for drug consumption from possible satiating effects of cumulative drug doses (Stafford et al. 1998). Such characteristics result in theoretically different interpretations of the factors controlling drug-seeking behavior on a PR compared with a FR. […] After acquisition of cocaine or nicotine self-administration under an FR, as described above, rats were switched to a PR schedule of reinforcement in which the following sequence of level presses was required to receive each subsequent infusion of nicotine or cocaine: 5, 10, 17, 24, 32, 42, 56, 73, 95, 124, 161, 208, etc. Rats were injected with MPEP (0, 1, 3 or 9 mg/kg) 30 min prior to each PR session. All PR sessions lasted for 3 h. All subjects reached breaking-points during the 3 hour session.

Series [2] deals with mice. Conditions: 30 mg/kg i.p.; cited from earlier work.
For the next series, the system named is male Wistar rats. The text has this:
Animals were trained to respond according to a modification of the discrete-trial current-threshold procedure of Kornetsky and Esposito (Fed Proc 38:2473-2476, 1979), which has been described in detail previously (Markou and Koob, 1992 Physiol Behav 51:111-119). Briefly, a trial was initiated by the delivery of a non-contingent electrical stimulus. […] The current intensity delivered was adjusted for each animal and typically ranged from 50 to 200 μA. […] After a variable inter-trial interval (7.5-12.5 sec, average of 10 sec), another trial was initiated with the delivery of a non-contingent electrical stimulus. […] Responding during the inter-trial interval delayed the onset of the next trial by 12.5 sec. Current levels were varied in alternating descending and ascending series. A set of three trials was presented for each current intensity. Current intensities were altered in 5 μA steps. In each testing session, four alternating descending-ascending series were presented. […] The overall threshold of the session was defined as the mean of the thresholds for the four individual series. Each testing session was ˜30 min in duration. The latency between the onset of the non-contingent stimulus and a positive response was recorded as the response latency. The response latency for each test session was defined as the mean response latency of all trials during which a positive response occurred. After establishment of stable ICSS reward thresholds, rats were tested in the ICSS procedure once daily except for the spontaneous nicotine withdrawal experiment when rats were tested at time-points according to the experimental design.
Systemic administration experiments. These experiments investigated whether nicotine withdrawal, as measured by elevations in ICSS thresholds, could be precipitated in nicotine-treated rats by systemic administration of an agonist at mGluII receptors (LY314582), an agonist at GABAB receptors (CGP44532), or antagonists at mGlu5 (MPEP), NMDA (MK-801) or AMPA/Kainate (NBQX) glutamate receptors. For each drug tested, rats were trained in the ICSS paradigm until stable baseline responding was achieved, defined as ≦10% variation in thresholds for 3 consecutive days and requiring approximately 14 days of daily testing. […] One group was then prepared with subcutaneous osmotic mini-pumps delivering vehicle and the second group with mini-pumps delivering 9 mg/kg/day nicotine hydrogen tartrate (3.16 mg/kg/day nicotine free base). There was a minimum seven-day interval after mini-pump implantation, during which ICSS reward thresholds continued to be measured daily, before the effect of any systemically administered drug on reward thresholds was evaluated.

The test system of series [3] is mice. Particulars: Chiamulera et al. 2001; cited from earlier work.
A further series relates to rats. Particulars: 2.5-10 mg/kg i.p.; cited from earlier work.
Where [4] appears, read: MPEP 0.01 mg/kg i.p., Nicotine-treated rats.
Where [5] appears, read: MPEP 0.01 mg/kg i.p., Vehicle-treated rats.
Where [6] appears, read: MPEP 0.05 mg/kg i.p., Nicotine-treated rats.
[7] abbreviates: MPEP 0.05 mg/kg i.p., Vehicle-treated rats.
The mark [8] stands for this setting: MPEP 0.1 mg/kg i.p., Nicotine-treated rats.
Where [9] appears, read: MPEP 0.1 mg/kg i.p., Vehicle-treated rats.
Where [10] appears, read: MPEP 0.5 mg/kg i.p., Nicotine-treated rats.
[11] abbreviates: MPEP 0.5 mg/kg i.p., Vehicle-treated rats.
[12] abbreviates: MPEP 1 mg/kg i.p., Nicotine-treated rats.
The mark [13] stands for this setting: MPEP 1 mg/kg i.p., Vehicle-treated rats.
[14] abbreviates: MPEP 2 mg/kg i.p., Nicotine-treated rats.
[15] abbreviates: MPEP 2 mg/kg i.p., Vehicle-treated rats.
[16] abbreviates: MPEP 3 mg/kg i.p., Nicotine-treated rats.
The mark [17] stands for this setting: MPEP 3 mg/kg i.p., Vehicle-treated rats.

Where two headings read alike, the source gives them in different places.

With `CN1CCCC1c1cccnc1` (single isomer, unassigned; (-)) [nicotine, (−)-1-methyl-2-(3-pyridyl) pyrrolidine], the “stable plasma nicotine levels” value in series [1] is about 44 ng/mL.
Regarding `Cc1cccc(C#Cc2ccccc2)n1` [MPEP, 2-methyl-6-(phenylethynyl)-pyridine], the responding for food result with Wistar rats (MPEP 1-9 mg/kg, PR schedule) is listed as “no statistically significant effect on responding for food”. The “responding under a progressive ratio schedule (motivation)” value in the series on Wistar rats (MPEP 1-9 mg/kg, cocaine, nicotine, food) was “decreased the motivation of rats to obtain cocaine or nicotine without affecting their motivation for food”. Also, the break point result in the series with Wistar rats (PR schedule, cocaine and nicotine) was “significantly lowered the break point for cocaine and nicotine”. Also, in the series with mice [2], the rotarod performance result is reported as “had no effect on rotarod performance”. Besides, the “ICSS Thresholds” value is given as 93.86 ± 6.0 percentage of baseline in the series with male Wistar rats (setting [4]); 98.75 ± 3.5 percentage of baseline in the series on male Wistar rats (setting [5]); 94.11 ± 2.6 percentage of baseline with male Wistar rats (setting [6]); 101.27 ± 4.1 percentage of baseline with male Wistar rats (setting [7]); 103.84 ± 1.2 percentage of baseline in the series with male Wistar rats (setting [8]); 105.13 ± 3.2 percentage of baseline in the series with male Wistar rats (setting [9]). The “ICSS Thresholds” value with male Wistar rats (setting [10]) is given as 104.02 ± 2.2 percentage of baseline; with male Wistar rats (setting [11]), 103.01 ± 2.7 percentage of baseline; in the series with male Wistar rats (setting [12]), 105.81 ± 3.3 percentage of baseline; in the series with male Wistar rats (setting [13]) it was 103.70 ± 3.0 percentage of baseline; in the series on male Wistar rats (setting [14]) it was 121.17 ± 6.2 percentage of baseline; in the series on male Wistar rats (setting [15]) it was 111.21 ± 2.3 percentage of baseline. The “ICSS Thresholds” value with male Wistar rats (setting [16]) is listed as 119.11 ± 5.5 percentage of baseline; in the series on male Wistar rats (setting [17]), 111.52 ± 4.8 percentage of baseline. Moreover, the “ICSS response Latencies” value is reported as 101.50 percentage of baseline in the series on male Wistar rats (setting [4]); 99.75 ± 3.4 percentage of baseline in the series on male Wistar rats (setting [5]); 103.48 percentage of baseline with male Wistar rats (setting [6]); 104.87 ± 3.3 percentage of baseline in the series with male Wistar rats (setting [7]); 102.54 percentage of baseline in the series with male Wistar rats (setting [8]); 105.13 ± 4.8 percentage of baseline with male Wistar rats (setting [9]). Besides, the “ICSS response Latencies” value with male Wistar rats (setting [10]) is reported as 99.47 percentage of baseline; with male Wistar rats (setting [11]) it was 103.20 ± 4.4 percentage of baseline; with male Wistar rats (setting [12]) it was 99.12 percentage of baseline; with male Wistar rats (setting [13]), 100.72 ± 2.1 percentage of baseline; in the series with male Wistar rats (setting [14]), 101.31 percentage of baseline; with male Wistar rats (setting [15]), 107.60 ± 2.6 percentage of baseline. The “ICSS response Latencies” value in the series with male Wistar rats (setting [16]) is recorded as 102.22 percentage of baseline; in the series on male Wistar rats (setting [17]) it was 103.58 ± 2.3 percentage of baseline; in the series with male Wistar rats (MPEP 0.5-3 mg/kg, either group) it was “had no effect on response latencies”. The ICSS reward thresholds result in the series on male Wistar rats (MPEP 0.01-0.1 mg/kg, nicotine-treated or control rats) was “did not affect reward thresholds”; in the series with male Wistar rats (MPEP 0.5-3 mg/kg) it was “elevated reward thresholds in nicotine-treated and control rats”. Further, the cocaine self-administration entry in the series with mice [3] is “dose-dependent reduction in cocaine self-administration without affecting responding for food”. Also, the exploratory locomotor activity entry in the series with rats is “had no effect on exploratory locomotor activity in rats”.
